US11773078B2, “Furin inhibitors” (Glaxosmithkline Intellectual Property Development Limited, priority 2018, dated 2023)
Structures can show the parent of a compound that is named as a salt.

Experiments:
[1] = target: T1, furin (endogenous protease) in U20S cells (Homo sapiens, UniProt P09958); test: Furin cell-based assay (image-based, Golgi-targeted GFP with BMP10 furin/PCSK cleavage site); conditions: 24-hour incubation, read-out: furin golgi cell pXC50 (converted);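 note: Read-out is mean GFP fluorescence of Golgi puncta per cell by high-content imaging, retained when furin inhibited, over an eleven-point 0.00017–10 µM series, four-parameter fit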
T1 construct: the endogenous protease cleaves GFP; endogenous in cells; host or cells: U2OS cells transduced with a BacMam reporter
Protocol: This assay uses an image-based platform to evaluate the intracellular activity of compounds of the invention. Reactions were performed in black 384-well, tissue culture-treated, clear bottom plates (Greiner). Compounds under analysis were dissolved in DMSO (1.0 mM) and serially diluted 1 to 3 with DMSO through eleven dilutions. This creates a final compound concentration range from 0.00017 to 10 μM, and 0.1 μL of each concentration was transferred to the corresponding well of the assay plate. Assays were initiated by the addition of U20S cells simultaneously transduced with a BacMam-delivered construct containing a Golgi-targeting sequence followed by a 12-amino acid furin/PCSK cleavage site from Bone Morphogenic Protein 10 (BMP10) and then GFP at the C terminus. […] Briefly, frozen cells are thawed in assay media (Dulbecco's Modified Eagles Medium Nutritional Mixture F-12 (Ham) without phenol red containing 5% FBS) and diluted to deliver 6000 cells/well (50 μL) to the plate using a Multidrop Combi (Thermo).
After a 24-hour incubation period at 37° C., the cells are stained with Cell Mask Deep Red, fixed in paraformaldehyde and the nuclei stained using Ho33342. The Golgi-targeted GFP forms bright punctate clusters within the cell. In the absence of a furin inhibitor, the endogenous protease cleaves GFP from its N-acetylgalactosaminyltransferase-2 Golgi tether, releasing GFP into the Golgi lumen where fluorescence is diluted below the threshold of assay sensitivity. […] Cellular GFP intensity is determined by image-based acquisition (Incell 2200, Perkin Elmer) at 40× magnification with 4 fields measured per well. Multi-scale tophat segmentation is used to identify the GFP-tagged puncta and to quantitate the average fluorescence of all puncta on a per cell basis. Cellular toxicity is determined in parallel.
Data were analyzed using AbaseXE 7.3, utilizing a four-parameter curve fit equation. The following values were used to define limits and/or constraints for each of the four parameters: • Minimum—limit −10 to 10 • Maximum—90 to 110 • Slope—limit 0.5 to 2.0 • pXC50 confidence interval—10
Raw counts obtained from the respective plate reader (Perkin Elmer) were captured for data analysis. Curves were generated using the equation: Y=A+[(B−A)/(1+(10^C/x)^D)] • where: A=minimum response • B=maximum response • C=log 10*XC50 • D=slope factor • x=log 10 compound concentration [M]
The results were recorded as pXC50 values (−C in the above equation)

[2] = target: T2, Furin (108-574-Tev-Flag-His) enzyme (Homo sapiens, UniProt P09958); test: Furin enzyme assay; assay type: biochemical
T2 construct: Furin (108-574-Tev-Flag-His) enzyme was expressed and purified from CHO cells; TEV cleavage site (C); FLAG (C); His (C); made in house; host or cells: CHO cells
Outline: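 Compounds ran as 11-point threefold dilutions (0.00017–10 μM final) against 40 pM furin, purified from CHO cells, for 2 h at room temperature. Buffer: 100 mM HEPES pH7.5 with 1 mM CaCl2 and 0.005% Triton X-100. Envision readout. Four-parameter curve gives pXC50.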

T2 sequence (P09958 108-574): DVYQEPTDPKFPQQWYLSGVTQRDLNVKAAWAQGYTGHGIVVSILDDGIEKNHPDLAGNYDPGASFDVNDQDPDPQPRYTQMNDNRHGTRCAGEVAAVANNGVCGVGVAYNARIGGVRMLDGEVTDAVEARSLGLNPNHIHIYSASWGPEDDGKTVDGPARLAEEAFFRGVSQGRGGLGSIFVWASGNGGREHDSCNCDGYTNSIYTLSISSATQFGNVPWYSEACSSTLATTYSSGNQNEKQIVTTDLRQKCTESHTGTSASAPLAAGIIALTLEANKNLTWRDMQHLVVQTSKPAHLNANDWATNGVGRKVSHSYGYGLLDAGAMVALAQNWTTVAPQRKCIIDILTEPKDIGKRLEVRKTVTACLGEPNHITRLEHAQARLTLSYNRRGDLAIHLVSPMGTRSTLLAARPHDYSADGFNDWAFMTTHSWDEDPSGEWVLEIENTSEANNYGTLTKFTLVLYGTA
T1 sequence (P09958 108-794): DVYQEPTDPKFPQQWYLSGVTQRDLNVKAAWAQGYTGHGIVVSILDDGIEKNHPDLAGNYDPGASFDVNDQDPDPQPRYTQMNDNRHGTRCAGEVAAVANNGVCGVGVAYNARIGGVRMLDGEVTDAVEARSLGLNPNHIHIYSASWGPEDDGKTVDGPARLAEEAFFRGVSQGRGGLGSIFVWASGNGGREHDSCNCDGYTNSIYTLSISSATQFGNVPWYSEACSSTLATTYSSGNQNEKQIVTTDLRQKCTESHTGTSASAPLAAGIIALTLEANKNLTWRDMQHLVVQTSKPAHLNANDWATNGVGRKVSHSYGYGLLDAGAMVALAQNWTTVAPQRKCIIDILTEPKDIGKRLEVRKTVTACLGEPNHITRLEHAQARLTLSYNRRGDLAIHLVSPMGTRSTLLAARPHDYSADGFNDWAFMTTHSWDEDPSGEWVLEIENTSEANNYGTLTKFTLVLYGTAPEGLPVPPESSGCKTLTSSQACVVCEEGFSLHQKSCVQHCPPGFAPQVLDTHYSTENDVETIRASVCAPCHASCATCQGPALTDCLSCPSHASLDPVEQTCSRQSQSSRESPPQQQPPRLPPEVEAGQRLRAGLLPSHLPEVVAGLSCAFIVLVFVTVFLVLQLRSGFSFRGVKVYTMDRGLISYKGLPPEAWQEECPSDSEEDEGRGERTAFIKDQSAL

SMILES	EC50 [1]	furin enzyme pIC50 [2]
C[C@@H](O)CN1CCN(c2ncc(Oc3cc(CN4CCC(OCC(=O)O)CC4)cc(-c4cc(Cl)cc(Cl)c4)n3)cn2)CC1 [Example 317, (R)-2-((1-((2-(3,5-dichlorophenyl)-6-((2-(4-(2-hydroxypropyl)piperazin-1-yl)pyrimidin-5-yl)oxy)pyridin-4-yl)methyl)piperidin-4-yl)oxy)acetic acid]	15.8 nM	9.2
CN1CCN(c2ncc(Oc3cc(CN4CCC(CB(O)O)CC4)cc(-c4cc(Cl)cc(Cl)c4)n3)cn2)CC1 [Example 318, ((1-((2-(3,5-Dichlorophenyl)-6-((2-(4-methylpiperazin-1-yl)pyrimidin-5-yl)oxy)pyridin-4-yl)methyl)piperidin-4-yl)methyl)boronic acid, 4 hydrochloride]	10 nM	8.9
CC(=O)NCC1CCN(Cc2cc(Oc3cnc(N4CCN(CCB(O)O)CC4)nc3)nc(-c3cc(Cl)cc(Cl)c3)c2)CC1 [Example 319, (2-(4-(5-((4-((4-(Acetamidomethyl)piperidin-1-yl)methyl)-6-(3,5-dichlorophenyl)pyridin-2-yl)oxy)pyrimidin-2-yl)piperazin-1-yl)ethyl)boronic acid, 4 hydrochloride]	1 nM	8.9
CN1CCN(c2ncc(Oc3cc(CN4CCC(CP(C)(C)=O)CC4)cc(-c4cc(Cl)cc(Cl)c4)n3)cn2)CC1 [Example 320, ((1-((2-(3,5-Dichlorophenyl)-6-((2-(4-methylpiperazin-1-yl)pyrimidin-5-yl)oxy)pyridin-4-yl)methyl)piperidin-4-yl)methyl)dimethylphosphine oxide, 4 hydrochloride]	12.6 nM	8.2
CN1CCCN(c2ncc(Oc3cc(CN4CCC(CB(O)O)CC4)cc(-c4cc(Cl)cc(Cl)c4)n3)cn2)CC1 [Example 322, ((1-((2-(3,5-dichlorophenyl)-6-((2-(4-methyl-1,4-diazepan-1-yl)pyrimidin-5-yl)oxy)pyridin-4-yl)methyl)piperidin-4-yl)methyl)boronic acid]	6.31 nM	8.9
CN1CCN(c2ncc(Oc3cc(CN4CCC(CCB(O)O)CC4)cc(-c4cc(Cl)cc(Cl)c4)n3)cn2)CC1 [Example 323, (2-(1-((2-(3,5-dichlorophenyl)-6-((2-(4-methylpiperazin-1-yl)pyrimidin-5-yl)oxy)pyridin-4-yl)methyl)piperidin-4-yl)ethyl)boronic acid]	12.6 nM	8.7
CC(=O)NC(=O)OCC1CCN(Cc2cc(Oc3cnc(N4CCN(C)CC4)nc3)nc(-c3cc(Cl)cc(Cl)c3)c2)CC1 [Example 324]	15.8 nM	8.3
COC(=O)NC(=O)NCC1CCN(Cc2cc(Oc3cnc(N4CCN(C)CC4)nc3)nc(-c3cc(Cl)cc(Cl)c3)c2)CC1 [Example 325]	6.31 nM	8.3
CN1CCN(c2ncc(Oc3cc(CN4CCC(CNC(=O)NS(C)(=O)=O)CC4)cc(-c4cc(Cl)cc(Cl)c4)n3)cn2)CC1 [Example 326, N-(((1-((2-(3,5-dichlorophenyl)-6-((2-(4-methylpiperazin-1-yl)pyrimidin-5-yl)oxy)pyridin-4-yl)methyl)piperidin-4-yl)methyl)carbamoyl)methanesulfonamide]	12.6 nM	8.7
CC(=O)NC(=O)NCC1CCN(Cc2cc(Oc3cnc(N4CCN(C)CC4)nc3)nc(-c3cc(Cl)cc(Cl)c3)c2)CC1 [Example 327]	3.16 nM	8.6
CN1CCN(c2ncc(Oc3cc(CN4CCC(NC(=O)NS(C)(=O)=O)CC4)cc(-c4cc(Cl)cc(Cl)c4)n3)cn2)CC1 [Example 328, N-((1-((2-(3,5-dichlorophenyl)-6-((2-(4-methylpiperazin-1-yl)pyrimidin-5-yl)oxy)pyridin-4-yl)methyl)piperidin-4-yl)carbamoyl)methanesulfonamide]	12.6 nM	8.3
CN1CCN(c2ncc(Oc3cc(CN4CCC(NC(N)=O)CC4)cc(-c4cc(Cl)cc(Cl)c4)n3)cn2)CC1 [Example 329, 1-(1-((2-(3,5-dichlorophenyl)-6-((2-(4-methylpiperazin-1-yl)pyrimidin-5-yl)oxy)pyridin-4-yl)methyl)piperidin-4-yl)urea]	15.8 nM	8.2
CN1CCN(c2ncc(Oc3cc(CN4CCO[C@H](CO)CC4)cc(-c4cc(Cl)cc(Cl)c4)n3)cn2)CC1 [Example 330, (S)-(4-((2-(3,5-Dichlorophenyl)-6-((2-(4-methylpiperazin-1-yl)pyrimidin-5-yl)oxy)pyridin-4-yl)methyl)-1,4-oxazepan-7-yl)methanol, 4 hydrochloride]	10 nM	8
CN1CCN(c2ncc(Oc3cc(CN4CCC(P(C)(C)=O)CC4)cc(-c4cc(Cl)cc(Cl)c4)n3)cn2)CC1 [Example 331, (1-((2-(3,5-Dichlorophenyl)-6-((2-(4-methylpiperazin-1-yl)pyrimidin-5-yl)oxy)pyridin-4-yl)methyl)piperidin-4-yl)dimethylphosphine oxide, 4 hydrochloride]	20 nM	7.8
CN1CCN(c2ncc(Nc3cc(CN4CCC(CC(=O)O)CC4)cc(-c4cc(Cl)cc(Cl)c4)n3)cn2)CC1 [Example 332, 2-(1-((2-(3,5-Dichlorophenyl)-6-((2-(4-methylpiperazin-1-yl)pyrimidin-5-yl)amino)pyridin-4-yl)methyl)piperidin-4-yl)acetic acid, 4 hydrochloride]	50.1 nM	8.3
Cc1c(CN2CCC(CC(=O)O)CC2)cc(-c2cc(Cl)cc(Cl)c2)nc1Oc1cnc(N2CCN(C)CC2)cn1 [Example 333, 2-(1-((6-(3,5-Dichlorophenyl)-3-methyl-2-((5-(4-methylpiperazin-1-yl)pyrazin-2-yl)oxy)pyridin-4-yl)methyl)piperidin-4-yl)acetic acid]	12.6 nM	8.7
CC(=O)NCC1CCN(Cc2cc(Oc3cnc(N4CC5CCC(C4)N5)nc3)nc(-c3cc(Cl)cc(Cl)c3)c2)CC1 [Example 335, N-((1-((2-((2-(3,8-diazabicyclo[3.2.1]octan-3-yl)pyrimidin-5-yl)oxy)-6-(3,5-dichlorophenyl)pyridin-4-yl)methyl)piperidin-4-yl)methyl)acetamide]	1.26 nM	9.2
COC(=O)NCC1CCN(Cc2cc(Oc3cnc(N4CCN5CCC4C5)nc3)nc(-c3cc(Cl)cc(Cl)c3)c2)CC1 (centres unmarked) [Example 336, methyl ((1-((2-((2-(1,4-diazabicyclo[3.2.1]octan-4-yl)pyrimidin-5-yl)oxy)-6-(3,5-dichlorophenyl)pyridin-4-yl)methyl)piperidin-4-yl)methyl)carbamate]	3.98 nM	9.1
O=C(O)[C@H]1[C@@H]2CCN(Cc3cc(Oc4cnc(N5CCN6CCC5C6)nc4)nc(-c4cc(Cl)cc(Cl)c4)c3)CC[C@@H]21 (stereo partly drawn) [Example 337, (1R,7S,8r)-4-((2-((2-(1,4-diazabicyclo[3.2.1]octan-4-yl)pyrimidin-5-yl)oxy)-6-(3,5-dichlorophenyl)pyridin-4-yl)methyl)-4-azabicyclo[5.1.0]octane-8-carboxylic acid]	7.94 nM	9
FC1CCN(Cc2cc(Oc3cnc(N4CCN5CCC4C5)nc3)nc(-c3cc(Cl)cc(Cl)c3)c2)CC1 (centres unmarked) [Example 338, 4-(5-((6-(3,5-dichlorophenyl)-4-((4-fluoropiperidin-1-yl)methyl)pyridin-2-yl)oxy)pyrimidin-2-yl)-1,4-diazabicyclo[3.2.1]octane]	12.6 nM	8
CC(CCN1CCN(c2cnc(Oc3cc(CN4CCC(CCO)CC4)cc(-c4cc(Cl)cc(Cl)c4)n3)cn2)CC1)C(=O)O (centres unmarked) [Example 341, 4-(4-(5-((6-(3,5-dichlorophenyl)-4-((4-(2-hydroxyethyl)piperidin-1-yl)methyl)pyridin-2-yl)oxy)pyrazin-2-yl)piperazin-1-yl)-2-methylbutanoic acid]	10 nM	8.8
OCCC1CCN(Cc2cc(Oc3cnc(N4CCNCC4)cn3)nc(-c3cc(Cl)cc(Cl)c3)c2)CC1 [Example 342, 2-(1-((2-(3,5-dichlorophenyl)-6-((5-(piperazin-1-yl)pyrazin-2-yl)oxy)pyridin-4-yl)methyl)piperidin-4-yl)ethanol]	5.01 nM	8.7
CC(C)(O)CN1CCN(c2cnc(Oc3cc(CN4CCC(CC(=O)O)CC4)cc(-c4cc(Cl)cc(Cl)c4)n3)cn2)CC1 [Example 343, 2-(1-((2-(3,5-dichlorophenyl)-6-((5-(4-(2-hydroxy-2-methylpropyl)piperazin-1-yl)pyrazin-2-yl)oxy)pyridin-4-yl)methyl)piperidin-4-yl)acetic acid]	63.1 nM	8.7
O=C(O)CC1CCN(Cc2cc(Oc3ccc(N4CCN5CCC4C5)nn3)nc(-c3cc(Cl)cc(Cl)c3)c2)CC1 (centres unmarked) [Example 344, 2-(1-((2-((6-(1,4-diazabicyclo[3.2.1]octan-4-yl)pyridazin-3-yl)oxy)-6-(3,5-dichlorophenyl)pyridin-4-yl)methyl)piperidin-4-yl)acetic acid]	79.4 nM	8.4
CCN1CCCN(c2cnc(Oc3cc(CN4CCC(CC(=O)O)CC4)cc(-c4cc(Cl)cc(Cl)c4)n3)cn2)CC1 [Example 345, 2-(1-((2-(3,5-dichlorophenyl)-6-((5-(4-ethyl-1,4-diazepan-1-yl)pyrazin-2-yl)oxy)pyridin-4-yl)methyl)piperidin-4-yl)acetic acid]	12.6 nM	8.6
